Data reported in the NIST ThermoML archive (doi:10.1021/je060271a).
“And” between values parts separate entries of the source, which are not always exact repeats. Equal values may be shown once.

Settings: 323.15 K, Liquid, Vibrating tube method

CCCCCC(=O)OCC(COC(=O)CCCCC)(COC(=O)CCCCC)COC(=O)CCCCC [pentaerythritol tetrahexanoate]
Settings | mass density
4356.6 kPa | 975.7 kg/m3
4377.1 kPa | 975.8 kg/m3
4397.7 kPa | 975.8 kg/m3
4414.6 kPa | 975.8 kg/m3
4431.8 kPa | 975.7 kg/m3
4453.1 kPa | 975.7 kg/m3
4474 kPa | 975.7 kg/m3
4491.8 kPa | 975.8 kg/m3
4509.3 kPa | 975.7 kg/m3
6215.6 kPa | 977 kg/m3
6237.7 kPa | 977 kg/m3
6256.2 kPa | 977.1 kg/m3
6278.3 kPa | 977.1 kg/m3
6297 kPa | 977 kg/m3
6319.4 kPa | 977.2 kg/m3
6338.8 kPa | 977.1 kg/m3
6508.8 kPa | 977.2 kg/m3
6532.7 kPa | 977.2 kg/m3
6552.5 kPa | 977.2 kg/m3
7405.8 kPa | 977.7 kg/m3
7431 kPa | 977.8 kg/m3
7486 kPa | 977.8 kg/m3
7516.4 kPa | 978 kg/m3
7547.5 kPa | 977.8 kg/m3
7600 kPa | 978 kg/m3
7657.3 kPa | 978 kg/m3
7688 kPa | 978 kg/m3
7711.5 kPa | 978.1 kg/m3
7734.2 kPa | 978.1 kg/m3
7761.5 kPa | 978 kg/m3
7886.8 kPa | 978.1 kg/m3
7915.3 kPa | 978.1 kg/m3
7938.6 kPa | 978.2 kg/m3
7966.7 kPa | 978.2 kg/m3
7990.5 kPa | 978.2 kg/m3
8019.5 kPa | 978.3 kg/m3
8044.2 kPa | 978.3 kg/m3
8073.3 kPa | 978.1 kg/m3
8098.3 kPa | 978.3 kg/m3
8128.9 kPa | 978.3 kg/m3
8158.2 kPa | 978.5 kg/m3
8182.5 kPa | 978.3 kg/m3
8207.5 kPa | 978.3 kg/m3
9038.7 kPa | 978.9 kg/m3
9060.6 kPa | 979.1 kg/m3
9078.3 kPa | 978.9 kg/m3
9100 kPa | 978.9 kg/m3
9123 kPa | 978.9 kg/m3
9245.2 kPa | 979 kg/m3
9267 kPa | 979 kg/m3
9289.4 kPa | 979.1 kg/m3
9308.6 kPa | 979.1 kg/m3
9331.8 kPa | 979.1 kg/m3
9354.9 kPa | 979 kg/m3
9374.6 kPa | 979.1 kg/m3
9395.3 kPa | 979.1 kg/m3
9417.9 kPa | 979.2 kg/m3
9435.5 kPa | 979.1 kg/m3
9456.1 kPa | 979.2 kg/m3
9473 kPa | 979.2 kg/m3
9493.7 kPa | 979.2 kg/m3
9510.8 kPa | 979.3 kg/m3
9531.3 kPa | 979.2 kg/m3
9552.1 kPa | 979.3 kg/m3
9569.5 kPa | 979.3 kg/m3
9590.4 kPa | 979.3 kg/m3
9603.6 kPa | 979.4 kg/m3
9617.2 kPa | 979.3 kg/m3
9629.1 kPa | 979.4 kg/m3
9642.9 kPa | 979.3 kg/m3
9655.3 kPa | 979.4 kg/m3
9669.9 kPa | 979.3 kg/m3
9681.3 kPa | 979.5 kg/m3
9694.7 kPa | 979.3 kg/m3
9706.3 kPa | 979.4 kg/m3
9735.4 kPa | 979.4 kg/m3
9747.4 kPa | 979.4 kg/m3
9762.1 kPa | 979.4 kg/m3
9776.4 kPa | 979.4 kg/m3
9788.2 kPa | 979.5 kg/m3
9798.4 kPa | 979.4 kg/m3
9804.9 kPa | 979.4 kg/m3
9900.4 kPa | 979.4 kg/m3
9910.4 kPa | 979.4 kg/m3
9915.9 kPa | 979.4 kg/m3
9925.7 kPa | 979.6 kg/m3
9936.9 kPa | 979.5 kg/m3
9949.3 kPa | 979.5 kg/m3
9960.5 kPa | 979.5 kg/m3
9987.7 kPa | 979.6 kg/m3
9992.5 kPa | 979.5 kg/m3
10032 kPa | 979.7 kg/m3
10036 kPa | 979.6 kg/m3 and 979.7 kg/m3
10106 kPa | 979.7 kg/m3
10118 kPa | 979.7 kg/m3
10128 kPa | 979.6 kg/m3
10139 kPa | 979.6 kg/m3
10152 kPa | 979.6 kg/m3
10164 kPa | 979.7 kg/m3
10182 kPa | 979.6 kg/m3
10203 kPa | 979.7 kg/m3
10219 kPa | 979.8 kg/m3
10240 kPa | 979.8 kg/m3
10257 kPa | 979.7 kg/m3
10473 kPa | 979.9 kg/m3
10503 kPa | 979.9 kg/m3
10540 kPa | 980 kg/m3
10575 kPa | 979.9 kg/m3
10605 kPa | 980 kg/m3
10670 kPa | 980 kg/m3
10704 kPa | 980 kg/m3
10737 kPa | 980.1 kg/m3
10764 kPa | 980.1 kg/m3
10956 kPa | 980.2 kg/m3
10977 kPa | 980.2 kg/m3
11001 kPa | 980.3 kg/m3
11018 kPa | 980.2 kg/m3
11037 kPa | 980.2 kg/m3
11056 kPa | 980.3 kg/m3
11071 kPa | 980.4 kg/m3
11201 kPa | 980.4 kg/m3
11204 kPa | 980.4 kg/m3
11210 kPa | 980.4 kg/m3
11217 kPa | 980.4 kg/m3
11228 kPa | 980.4 kg/m3
11243 kPa | 980.4 kg/m3
11257 kPa | 980.3 kg/m3
11280 kPa | 980.5 kg/m3
11301 kPa | 980.4 kg/m3
11327 kPa | 980.5 kg/m3
11349 kPa | 980.5 kg/m3
11374 kPa | 980.6 kg/m3
11395 kPa | 980.6 kg/m3
11421 kPa | 980.6 kg/m3
11448 kPa | 980.5 kg/m3
11470 kPa | 980.5 kg/m3
11496 kPa | 980.6 kg/m3
11518 kPa | 980.6 kg/m3
11545 kPa | 980.6 kg/m3
11572 kPa | 980.5 kg/m3
11594 kPa | 980.5 kg/m3
11621 kPa | 980.6 kg/m3
11849 kPa | 980.8 kg/m3
11899 kPa | 980.9 kg/m3
11926 kPa | 980.8 kg/m3
